Where a name gives a salt, the structure may show the parent alone.
What was measured:
[1] = Intrinsic dissolution (dissolution rate) of compressed salt samples in a Wood apparatus; assay type: physicochemical; details: 37°C, 900 ml, 50 U/min
Description: 100 mg Tapentadol, entweder in Form des Hydrochloridsalzes oder des Salzes mit L-(+)-Weinsäure wurden mit einer Presskraft von 200 kg (gravitativ) bei einer Oberfläche von 0,5 cm^2 1 Minute verpresst. Die so erhaltenen verpressten Proben wurden in einem Wood-Apparat bei 37°C in 900 ml Auflösungsmedium bei verschiedenen pH-Werten und einer Paddeldrehgeschwindigkeit von 50 U/min auf ihre Auflösungsrate untersucht.

[2] = Thermodynamic solubility (saturation solubility, HPLC quantification as free base); assay type: physicochemical; details: for Thermodynamische Löslichkeit, Assay ausgedrückt als Base: 24 h at 25°C; for pH Ende: pH of the solution at the end (24 h, 25°C); for pH Start: pH of the solution at the start
Description: Die thermodynamische Löslichkeit von Tapentadolhydrochlorid und des Salzes von Tapentadol mit L-(+)-Weinsäure wurde als Sättigungslöslichkeit in verschiedenen Medien bei verschiedenen pH-Werten bestimmt. Die Lösungen wurden 24 Stunden bei 25°C gerührt und die pH-Werte der Lösungen zu Beginn und am Ende der Experimente wurden gemessen. Die gelöste Menge an Tapentadol wurde durch HPLC quantifiziert (freie Base von Tapentadol). Die experimentellen Ergebnisse sind in der Tabelle unten zusammengestellt: […]

Structure (SMILES) | intrinsische Auflösung (Auflösungsrate) ([1]; pH 1,0, 0 min) [%] | intrinsische Auflösung (Auflösungsrate) ([1]; pH 1,0, 1 min) [%] | intrinsische Auflösung (Auflösungsrate) ([1]; pH 1,0, 3 min) [%] | intrinsische Auflösung (Auflösungsrate) ([1]; pH 1,0, 5 min) [%] | intrinsische Auflösung (Auflösungsrate) ([1]; pH 4,5, 0 min) [%] | intrinsische Auflösung (Auflösungsrate) ([1]; pH 4,5, 1 min) [%] | intrinsische Auflösung (Auflösungsrate) ([1]; pH 4,5, 3 min) [%] | intrinsische Auflösung (Auflösungsrate) ([1]; pH 4,5, 5 min) [%] | intrinsische Auflösung (Auflösungsrate) ([1]; pH 6,8, 0 min) [%] | intrinsische Auflösung (Auflösungsrate) ([1]; pH 6,8, 1 min) [%] | intrinsische Auflösung (Auflösungsrate) ([1]; pH 6,8, 3 min) [%] | intrinsische Auflösung (Auflösungsrate) ([1]; pH 6,8, 5 min) [%] | intrinsische Auflösung (Auflösungsrate) ([1]; pH 7,4, 0 min) [%] | intrinsische Auflösung (Auflösungsrate) ([1]; pH 7,4, 1 min) [%] | intrinsische Auflösung (Auflösungsrate) ([1]; pH 7,4, 3 min) [%] | intrinsische Auflösung (Auflösungsrate) ([1]; pH 7,4, 5 min) [%] | Thermodynamische Löslichkeit, Assay ausgedrückt als Base ([2]; medium 0,1 M HCl) | Thermodynamische Löslichkeit, Assay ausgedrückt als Base ([2]; medium Acetat pH 4,5) | Thermodynamische Löslichkeit, Assay ausgedrückt als Base ([2]; medium SIF sp pH 6,8) | Thermodynamische Löslichkeit, Assay ausgedrückt als Base ([2]; medium Wasser) | other results
CC[C@@H](c1cccc(O)c1)[C@@H](C)CN(C)C [Salz von Tapentadol mit L-(+)-Weinsäure, (-)-(1R,2R)-3-(3-Dimethylamino-1-ethyl-2-methylpropyl)phenol] | 0 | 19 | 51 | 77 | 0 | 20 | 51 | 77 | 0 | 19 | 44 | 67 | 0 | 18 | 44 | 65 | 26,7 g/100 ml | 26,6 g/100 ml | 12,6 g/100 ml | 26,4 g/100 ml | Thermodynamische Löslichkeit, Assay ausgedrückt als Base ([2]; medium Phosphat pH 7,4): 12,9 g/100 ml; pH Ende ([2]; medium 0,1 M HCl): 3,39; pH Ende ([2]; medium Acetat pH 4,5): 3,53; pH Ende ([2]; medium Phosphat pH 7,4): 3,56; pH Ende ([2]; medium SIF sp pH 6,8): 3,55; pH Ende ([2]; medium Wasser): 3,38; pH Start ([2]; medium 0,1 M HCl): 1,15; pH Start ([2]; medium Acetat pH 4,5): 4,51; pH Start ([2]; medium Phosphat pH 7,4): 7,53; pH Start ([2]; medium SIF sp pH 6,8): 6,83; pH Start ([2]; medium Wasser): 6,19
CC[C@@H](c1cccc(O)c1)[C@@H](C)CN(C)C [Tapentadolhydrochlorid, (-)-(1R,2R)-3-(3-Dimethylamino-1-ethyl-2-methylpropyl)phenol, reference compound] | 0 | 52 | 95 | 99 | 0 | 60 | 91 | 95 | 0 | 38 | 79 | 92 | 0 | 27 | 65 | 80 | 31,2 g/100 ml | 32,7 g/100 ml | 32,4 g/100 ml | 33,0 g/100 ml | Thermodynamische Löslichkeit, Assay ausgedrückt als Base ([2]; medium Citrat pH 7.4): 31,9 g/100 ml; pH Ende ([2]; medium 0,1 M HCl): 0,83; pH Ende ([2]; medium Acetat pH 4,5): 4,29; pH Ende ([2]; medium Citrat pH 7.4): 6,33; pH Ende ([2]; medium SIF sp pH 6,8): 6,23; pH Ende ([2]; medium Wasser): 4,63; pH Start ([2]; medium 0,1 M HCl): 1,11; pH Start ([2]; medium Acetat pH 4,5): 4,54; pH Start ([2]; medium Citrat pH 7.4): 7,39; pH Start ([2]; medium SIF sp pH 6,8): 6,82
